Structures are written as SMILES.

Broadly, the melting point is the temperature, or range, at which the solid turns liquid. Take `Cc1nc(-c2ccc(O)cc2)[nH]c1Cl`: the melting point was in the range of 226 to 228 °C.

`COC(=O)OCC1OC(n2cc(C)c(=O)[nH]c2=O)C(OC(=O)c2cccc(C(F)(F)F)c2)C1OS(C)(=O)=O` (stereo not drawn) gave a melting point of 94 to 96 °C.

Compound `OC(COc1cccc2[nH]nnc12)CN1CCC(COc2ccccc2)CC1` (stereo not drawn) had a melting point of 187 to 189 °C.

`COc1cc(C(=O)C(=O)O)cc(OC)c1OCCOc1ccc2ccccc2c1` returned a melting point of 114 to 116 °C.

The compound `c1coc(-c2ccc3c(n2)[nH]c2ccccc23)c1` had a melting point of 208 to 210 °C.

`CCNC(=O)c1cc(-c2ccc(OC)cc2)nn(CC2CCCC2)c1=O` returned a melting point of 129 °C.

As to `OP(O)C(NC(c1ccccc1)c1ccccc1)c1cccnc1` (stereo not drawn), the melting point lay in the range of 129 to 132 °C.

The compound `Cc1ccccc1CNC[C@@H]1C[C@@H](S)CN1S(=O)(=O)c1ccc2ccccc2c1` registered a melting point of 122 °C.

As to `CCOC(=O)c1cnn2c1c(O)nc1c(C)nn(C)c12`, the melting point was 246 to 247 °C.

With `COc1cc(OC)nc(NC(=O)NS(=O)(=O)c2ccccc2OS(=O)(=O)N(C)C)n1`, the melting point was 165 to 168 °C.

`CC1Oc2c(Cc3ccccc3)cc(CN3CCN(c4ccc(C(=O)NC5CC5)cc4)CC3)cc2NC1=O` (stereo not drawn) came in with a melting point of 192 to 203 °C.

The compound `Cc1noc(NS(=O)(=O)c2ccsc2COc2ccc3c(c2Cl)OCO3)c1Br` gave a melting point of 152 to 154 °C.

`Cc1cccc(SCc2c(C(C)C)nc(C(C)C)c(CO)c2-c2ccc(F)cc2)c1` registered a melting point of 92 to 93 °C.

The compound `O=c1cc(-c2nnn[nH]2)oc2cc(CCc3cccc(OCc4ccc5ccccc5n4)c3)ccc12` yielded a melting point of 201 to 205 °C.

Turning to `CCCC(C=NNC(=O)OC)c1ccc(Cl)cc1Cl` (stereo not drawn), the melting point lay in the range of 165 to 166 °C.

Turning to `O=C(CN1C(=O)CC1SCc1ccccc1)NCCCCCCc1ccc(F)cc1F` (stereo not drawn), the melting point lay in the range of 65 to 66 °C.

Consider `Nc1c(Cl)cc(-c2nc(C3CCNCC3)no2)c2c1CCO2`, for which the melting point was found to be 219 °C.

For `CCOC(=O)N1CCC(n2c(=O)[nH]c3ccc(C)cc32)CC1`, the melting point lay in the range of 222 to 224 °C.

For `O=C1c2ccccc2-c2c1[nH]c(=O)c1ccccc21`, the melting point was greater than 300 °C.

With `CCCOc1ccccc1-c1nc(O)cc(C(N)=O)n1`, the melting point amounted to 234 °C.

With `CNc1nc(C)c(-c2ccnc(Nc3cccc(CC(=O)OCCOC)c3)n2)s1`, the melting point was 193 to 195 °C.

Compound `COc1cc(OC)cc(Sc2ccc([N+](=O)[O-])cc2)c1` registered a melting point of 63 to 65 °C.

Compound `O=C(O)c1cccc(OCCCCCCc2cccc(O)c2O)c1` gave a melting point of 123 to 125 °C.

As to `CN(C)CC(O)C1=CC2(CCCC2)c2ccccc21` (stereo not drawn), the melting point lay in the range of 133 to 134 °C.

`Cc1cc(C)c2c(c1)OCC2c1ccc(C(C)C)cc1` (stereo not drawn) returned a melting point of 46 to 47 °C.

Turning to `Cc1ccc(Sc2ccc3c(c2)CC[C@H]2N(C)C(=O)CC[C@]32C)cc1`, the melting point was 154 to 156 °C.

For `O=C(O)c1ccccc1OCc1cccc(OCc2ccc3ccccc3n2)c1`, the melting point lay in the range of 149 to 154 °C.

The compound `NS(=O)(=O)c1ccc(N2N=C(C(F)(F)F)CC2c2c[nH]c3ccccc23)cc1` (stereo not drawn) showed a melting point of 138 to 140 °C.

`COc1ccc(OCC(=O)O)c2c(=O)c3ccccc3sc12` returned a melting point of 223 to 225 °C.

Turning to `O=C(O)c1cc2c(OC[C@@H](O)CN3CCC(c4ccc5ccccc5c4)CC3)cccc2[nH]1`, the melting point is 171 to 173 °C.

For the compound `CCCCc1ccc(C(=O)O)cc1C12CC3CC(CC(C3)C1)C2`, the melting point fell in the range of 209 to 210 °C.

`CC(C)n1cc(C(=O)NCc2ccc(Cl)cc2)c(=O)c2cc(I)sc21` came in with a melting point of 173 to 180 °C.

`COC(=O)c1ccc(N2C(=O)CCC2(CO)CCO)c([N+](=O)[O-])c1` (stereo not drawn) returned a melting point of 151 to 153 °C.

Turning to `O=S(=O)(c1c(F)c(F)c(F)c(F)c1F)N1CCCC(c2ccc(F)cc2)=N1`, the melting point was in the range of 140 to 141 °C.

In turn, `COC1=C(OC)CC(C=C(C#N)C(N)=O)C=C1` (stereo not drawn) came in with a melting point of 170 to 171 °C.

For `COc1ccc(-c2nc(S(=O)(=O)c3cccs3)[nH]c2-c2ccc(OC)cc2)cc1`, the melting point amounted to 179 °C.

For the compound `CC(/C=C/c1ccccc1)=C\C(=O)NCCCCCC(=O)NO`, the melting point lay within 147 to 149 °C.

With `CC(C)(C)c1ccc(C(N)=O)cc1[N+](=O)[O-]`, the melting point is 114 to 115 °C.

The compound `Cn1ncnc1COc1nn2c(-c3ccccc3F)nnc2cc1CC1CCCC1` showed a melting point of 135 to 137 °C.

In the case of `O=C(N1CC(CCl)c2c1cc([N+](=O)[O-])c1ccccc21)C(F)(F)F` (stereo not drawn), the melting point came out at 182 °C.

Regarding `O=C1CCCc2c1c1cccc3c1n2CC3`, the melting point lay in the range of 208 to 210 °C.

`CNC(=O)NCCCCC1CCSS1` (stereo not drawn): the melting point was 89 to 90 °C.

As for `COc1c(N2CCCC(CN)C2)c(F)cc2c(=O)c(C(=O)O)cn(C3CC3)c12` (stereo not drawn), the melting point is 192 to 193 °C.

In turn, `CC12CCC(C(=O)O)=CC1=CCC1C2CCC2(C)C(C(=O)NC3C4CC5CC(C4)CC3C5)CCC12` (stereo not drawn) registered a melting point of 214 to 216 °C.

Compound `O=[N+]([O-])c1ccc(S(=O)(=O)Nc2ccccc2)cc1` showed a melting point of 154 to 156 °C.

`CC(C(=O)O)c1cc(Cl)c(N)cc1Cl` (stereo not drawn) displayed a melting point of 140 to 141 °C.

For the compound `CCOCc1cccc2[nH]c3cnc(C(=O)OCC)c(COC)c3c12`, the melting point lay in the range of 94 to 97 °C.

`O=c1c2ccccc2c(-c2ccccc2)cn1CC1CO1` (stereo not drawn) displayed a melting point of 148 °C.

In the case of `COc1cc2c(cc1OC)C1=NCC(CBr)N1C(SC)=N2` (stereo not drawn), the melting point worked out at 225 °C.

With `COc1ccc(C(=O)c2cc(-c3ccncc3)c(N3CCOCC3)s2)cc1`, the melting point came out at 193 °C.

Regarding `COc1cc(Nc2nccc(-c3ccc(NCCCN)nc3)n2)cc(OC)c1OC`, the melting point is 152 to 153 °C.

`CCc1cc(OCc2cccc(C(=O)OC)c2)cc(O)c1C(C)=O` registered a melting point of 132 °C.

As to `NCc1cccnc1C1CCN(c2c(F)c(N)c3c(=O)c(C(=O)O)cn(C4CC4)c3c2F)C1` (stereo not drawn), the melting point was in the range of 226 to 228 °C.

With `COc1ccc(C=Cc2ccc(C)cc2)c(Cl)c1`, the melting point was in the range of 144 to 145 °C.

In turn, `O=C(O)CN1C(=O)C(NC(=O)C(Cc2ccccc2)SC(=O)c2ccccc2)CCc2ccccc21` (stereo not drawn) returned a melting point of 170 to 171 °C.

The compound `CS(=O)(=O)Oc1ccc(-c2c3ccccc3c(I)c3sc4ccccc4c23)cc1` displayed a melting point of 176 to 186 °C.

Compound `CCOC(Cc1ccc(OCCN2CCC(C)(C)c3cc(C(=NOC)c4ccccc4)ccc32)cc1)C(=O)O` (stereo not drawn) displayed a melting point of 62 to 64 °C.

Take `O=C1c2ccccc2COc2ccc(O)cc21`: the melting point was in the range of 165 to 166 °C.

In turn, `Nc1nc2[nH]c(CCCc3ccc(C(=O)N[C@@H](CCC(=O)O)C(=O)O)s3)cc2c(=O)[nH]1` showed a melting point of 175 to 176 °C.

In the case of `CN(C)c1cc2ccc(OCc3ccccc3)cc2s1`, the melting point is 78 to 81 °C.

Turning to `CCCC(=O)C1=C(O)CC(C2(C)CC(C(C)CC)=NO2)CC1=O` (stereo not drawn), the melting point lay in the range of 53 to 55 °C.

`CCOP(=O)(OCC)C(CC(C(=O)Nc1ccccn1)C(=O)c1ccccc1)P(=O)(OCC)OCC` (stereo not drawn) displayed a melting point of 104 to 105 °C.

`O=C1NCCN1c1cccc(Cl)c1` returned a melting point of 121 to 123 °C.

In the case of `Cc1nc(-n2ccc3c(O)cccc3c2=O)sc1C(=O)NCc1ccccc1`, the melting point lay within 218 to 221 °C.

In turn, `Cc1cc(C(C)(C)CCl)c(C)nn1` came in with a melting point of 57 to 59 °C.

Take `COC(=O)/C(=N\O)c1csc(NC(c2ccccc2)(c2ccccc2)c2ccccc2)n1`: the melting point was 204 to 205 °C.

Turning to `C[C@@H]1S[C@@H](C(=O)Nc2ccc(CN3CCCCC3)cc2)Cc2cc3c(cc2C1=O)OCO3`, the melting point lay within 162 to 165 °C.

As to `COc1cc(CCCC2SC(=O)NC2=O)ccc1OCc1coc(/C=C/c2ccccc2)n1` (stereo not drawn), the melting point lay in the range of 154 to 155 °C.

In the case of `COC(=O)c1ccc(-c2nc3cc([N+](=O)[O-])c([N+](=O)[O-])cc3[nH]2)cc1`, the melting point fell in the range of 239 to 240 °C.

`O=C(NCCc1ccccc1)c1ccccc1I`: the melting point was in the range of 125 to 126 °C.

For `O=C1Cc2ccc(S(=O)(=O)Cl)cc21`, the melting point stood at 80 °C.

`O=[N+]([O-])c1ccc(Oc2cccc(Oc3ccc([N+](=O)[O-])c(O)c3)c2)cc1O` came in with a melting point of 180 to 182 °C.

`Clc1cccc(Nc2ccccc2)c1` displayed a melting point of 128 to 138 °C.

The compound `CCOC(=O)c1cn(CC)c2c(F)c(F)c(F)c(F)c2c1=O` had a melting point of 217 to 220 °C.

`CC1SC(=O)N(C(=O)C2CC3CCC2(C)C3(C)C)N=C1c1ccc2c(c1)CCCN2C(=O)c1ccc2c(c1)OCO2` (stereo not drawn): the melting point is 216 to 217 °C.

With `COc1ccc(C(=O)Nc2c(Cl)cncc2Cl)cc1SC1CCCC1`, the melting point was found to be 198 °C.

Compound `COc1cc2c(cc1OC)-c1c(Cl)nc3ccccc3c1C2=O` showed a melting point of 132 to 133 °C.

Turning to `Oc1ccc2c(c1)OC1(CCCCCC1)O2`, the melting point was 80 to 82 °C.

With `CCCC1CCC(O)(c2ccc(CCCCc3ccc(C4(O)CCC(CCC)CC4)cc3)cc2)CC1` (stereo not drawn), the melting point was determined as 136 °C.

Compound `CCCCOC(=O)Cc1cc2c(s1)CCN(C(=O)[C@H](Cc1ccc(O)cc1)NC(=O)c1ccc(C(=N)N)cc1)C2` showed a melting point of 176 to 178 °C.

Regarding `O=C(O)COc1cccc2c1CCc1sc(Cc3ccccc3)nc1-2`, the melting point fell in the range of 146 to 149 °C.

In turn, `N#CNC(=NC1CCN(Cc2ccccc2)CC1)NC1CCc2ccccc21` (stereo not drawn) displayed a melting point of 159 to 160 °C.

`CCOC(=O)c1cn2c(n1)CN(C(=O)OCC)c1ccccc1-2` showed a melting point of 151 to 153 °C.

In turn, `CCC(C)(C)OOC(C)(CCC(=O)NNC(=O)C(C#N)=C(c1ccccc1)c1ccccc1)OOC(C)(C)CC` showed a melting point of 145 to 148 °C.

In turn, `Cc1cc([N+](=O)[O-])c(NCCO)c([N+](=O)[O-])c1` displayed a melting point of 131 °C.

`COc1cc2c(cc1OC)CN(CCCOc1ccc(NC(=O)c3ccc4ccccc4c3)cc1)CC2` yielded a melting point of 189 to 190 °C.

`COC(=O)C(C)(C)OCC#Cc1cc(C(F)(F)F)ccc1NS(=O)(=O)c1cc(C)cc(C)c1` returned a melting point of 128 to 130 °C.

In the case of `NS(=O)(=O)c1nn(-c2ccccn2)cc1Br`, the melting point is 145 to 146 °C.

These data come from a melting point compilation (Tetko et al.; mined from patent text by program, amines drawn as free bases though some values may be those of a salt).
